According to EP4660196A1, “CRYSTAL FORM OF COMPOUND, PREPARATION METHOD THEREFOR AND USE THEREOF” (Felicamed Biotechnology Co., Ltd., priority 2023, dated 2024):
Values joined by “and” are separate entries in the source; they are usually repeats but may differ in a detail not shown here. Equal values may be shown once. Where a name gives a salt, the structure may show the parent alone. Read-outs that look alike come from different tables or passages of the source.

What was measured:
[1] = type: physicochemical; settings: 37°C; for S: solubility: calculated as free form; for pH: pH of filtrate
[2] = type: physicochemical; settings: 24 h; for S: solubility / pH: room temperature; for S: solubility: calculated as free form; for FC: crystal transfer: XRPD of solid; for pH: pH of filtrate
[3] = DVS
Procedure: DVS isotherms were collected on an SMS (Surface Measurement Systems) DVS Intrinsic. Relative humidity at 25°C was calibrated using the deliquescence points of LiCl, Mg(NO3)2, and KCl. Table 9 DVS testing parameters

[4] = for Carr index: (tapped density - bulk density) / tapped density; for Average angle of repose (°) / Average bulk density / Average tapped density: mean of three tests
Procedure: A method for testing the density and the tapped density included: (1) a certain mass of to-be-assessed sample was placed into a 5 mL measuring cylinder, and the volume at this moment was recorded. The bulk density was calculated by dividing the mass of the sample by the volume at this moment. (2) The measuring cylinder was slightly tapped 200 times, the final volume was recorded, and the tapped density was calculated by dividing the mass of the sample by the final volume. (3) Three parallel tests were conducted. A method for testing the angle of repose included: (1) a funnel was fixed vertically to a bottom surface, and the material was slowly placed into the funnel. (2) A well-proportioned cone of the material was formed on the bottom surface. The height and bottom surface diameter of the cone were measured. (3) Three parallel tests were conducted.
Angle of repose α = […], where h is the cone height, and D is the cone diameter.

[5] = Mechanical stability (grinding, tableting at 350 MPa, XRPD); type: physicochemical
[6] = Pharmacokinetics of hydrochloride crystal form A in Beagle dogs (intragastric); type: in vivo; settings: dog
Procedure: Three 31-month-old male Beagle dogs used in this experiment were purchased from Beijing Marshall Bioresources Co., Ltd., with the animal qualification certificate No. 110318201100056783.
In this experiment, three male Beagle dogs were randomly selected for administration. All the animals were fasted for at least 12 h before administration and were fed again 4 h after administration. […] Table 28 Administration methods for animals
The blood samples from the animals were collected through the jugular vein, with a blood sample volume of 0.5 mL/time. All collected whole blood samples were placed in centrifuge tubes containing EDTA-K2, and the centrifuge tubes were turned upside down to allow the anticoagulant and blood to be fully mixed. All the blood samples were placed on wet ice before centrifugation and centrifuged at 1500 g for 10 min to separate plasma. The plasma samples were transferred to sample tubes and stored at -40°C to […] until analysis.
The drug concentration in the plasma of each Beagle dog was detected by an LC-MS/MS method. […]

[7] = Solid-state stability (XRPD, UPLC purity); settings: for Crystal form Transform: XRPD; for Purity (area%): starting purity 99.82 (hydrochloride), 99.72 (free); for Area (%): UPLC main peak (#Peak 1, RRT 1.00)
[8] = listed as hydrochloride crystal form A
[9] = single values of three parallel tests

CC[S@@](=N)(=O)C[C@H]1CC[C@H](N(C)c2ncnc3[nH]ccc23)CC1 [Hydrochloride crystal form A]
S: solubility ([1]; FaSSIF, 1 h, 60 min): >9500 µg/mL | S: solubility ([1]; FaSSIF, 2 h, 120 min): >9700 µg/mL | S: solubility ([1]; FaSSIF, 4 h, 240 min): >9800 µg/mL | S: solubility ([1]; FaSSIF, 24 h, 1440 min): >9600 µg/mL | S: solubility ([1]; FeSSIF, 1 h, 60 min): >10400 µg/mL | S: solubility ([1]; FeSSIF, 2 h, 120 min): >10200 µg/mL | S: solubility ([1]; FeSSIF, 4 h, 240 min): >10200 µg/mL | S: solubility ([1]; FeSSIF, 24 h, 1440 min): >10000 µg/mL | S: solubility ([1]; H2O, 1 h, 60 min): >9300 µg/mL | S: solubility ([1]; H2O, 4 h, 240 min): >9500 µg/mL | S: solubility ([1]; SGF, 1 h, 60 min): >9800 µg/mL | S: solubility ([1]; SGF, 2 h, 120 min): >9900 µg/mL | S: solubility ([1]; SGF, 4 h, 240 min): >9800 µg/mL | S: solubility ([1]; SGF, 24 h, 1440 min): >10300 µg/mL | pH ([1]; FaSSIF, 1 h): 5.0 | pH ([1]; FaSSIF, 2 h): 5.1 | pH ([1]; FaSSIF, 4 h): 5.1 | pH ([1]; FaSSIF, 24 h): 5.0 | pH ([1]; FeSSIF, 1 h): 4.9 | pH ([1]; FeSSIF, 2 h): 4.9 | pH ([1]; FeSSIF, 4 h): 4.9 | pH ([1]; FeSSIF, 24 h): 4.8 | pH ([1]; H2O, 1 h): 4.0 | pH ([1]; H2O, 2 h): 4.0 | pH ([1]; H2O, 4 h): 4.0 | pH ([1]; H2O, 24 h): 4.0 | pH ([1]; SGF, 1 h): 2.9 | pH ([1]; SGF, 2 h): 3.0 | pH ([1]; SGF, 4 h): 3.0 | pH ([1]; SGF, 24 h): 2.9 | S: solubility ([2]; Buffer (pH=2.0)): >9500 µg/mL | S: solubility ([2]; Buffer (pH=7.4)): 2500 µg/mL | FC: crystal transfer ([2]; Buffer (pH=7.4)): Yes | FC: crystal transfer ([2]; Buffer (pH=7.4), listed as hydrochloride crystal form A): transformed into the free crystal form A | pH ([2]; Buffer (pH=2.0)): 3.5 | pH ([2]; Buffer (pH=4.5)): 4.4 | pH ([2]; Buffer (pH=7.4)): 6.2 | Hygroscopic weight gain (wt%) at 25°C/80% RH [3]: 0.47 wt% | Hygroscopic weight gain (wt%) at 25°C/80% RH [3, 8]: 0.47 wt% | Carr index [4]: 41% | Carr index [4, 8]: 41% | Average angle of repose (°) [4]: 33.9 ° | Average bulk density [4]: 0.14 g/mL | Average tapped density [4]: 0.24 g/mL | Average angle of repose (°) [4, 8]: 33.9 ° | Average bulk density [4, 8]: 0.14 g/mL | Average tapped density [4, 8]: 0.24 g/mL | Angle of repose (°) [4, 9]: 33.7 ° and 37.2 ° and 30.8 ° | Bulk density [4, 9]: 0.14 g/mL and 0.13 g/mL | Tapped density ([4]; tapped 200 times, single values of three parallel tests): 0.23 g/mL and 0.25 g/mL | Results of mechanical stability After grinding ([5]; manual grinding): The crystal form remains unchanged | Results of mechanical stability After tableting ([5]; tablet press, 350 MPa): The crystal form remains unchanged, but the crystallinity is slightly reduced | clinical observation ([6]; in vivo): no obvious abnormalities were found | k el ([6]; plasma, po, 6 mg/kg): 5.39e-05 s⁻¹ | Crystal form Transform ([7]; 25°C/60% RH/4 weeks, open): No | Purity (area%) ([7]; 25°C/60% RH/4 weeks, open): 99.88 area% | Crystal form Transform ([7]; 40°C/75% RH/4 weeks, open): No | Purity (area%) ([7]; 40°C/75% RH/4 weeks, open): 99.88 area% | Crystal form Transform ([7]; 80°C/1 d, closed): No | Area (%) ([7]; 25°C/60% RH/4 weeks): 99.88% | Area (%) ([7]; 40°C/75% RH/4 weeks): 99.88% | Area (%) ([7]; 80°C/1 d): 99.87%
